Test [1] deals with recombinant human IL-13 (Homo sapiens, UniProt P35225). The test can be described thus: TF-1 cell proliferation bioassay with rhIL-13. It counts as cell-based. As to conditions: rhIL-13 4 ng/ml; inhibitor 10 μg/ml and 2.5 μg/ml; 48 hours; FIG. 1. As for the experimental part:
The various simplified sulphated glycoconjugates inhibited the proliferation of an IL-13 responsive cell line to differing degrees. This occurs at very low doses and is believed not to be due to a toxic effect of the glycoconjugates because other, similarly sulfated polysaccharides (e.g. sucrose octasulfate), at the same concentrations of IL-13 and polysaccharide have no effect. These experiments utilize the TF-1 cells that are grown in 2 ng/ml recombinant human (rh) GM-CSF. TF-1 cells were originally established from a bone marrow sample from a person with severe pancytopenia. These cells are dependent on IL-3 or GM-CSF for long term growth and are responsive to a variety of human cytokines including IL-13.
(§1) Briefly, proliferation assays were carried out in 96-well microplates suitable for such assays. […] When the effect of the different simplified sulfated glycoconjugates was measured, the wells also contained various concentrations of these molecules (10 μg/ml and 2.5 μg/ml) and the rhIL-13 concentration was held constant at 4 ng/ml. The cells proliferated for 48 hours, after which the number of cells present was quantified by staining with 20 μL per well of the CellTiter 96 Aqueous One reagent was incubated with TF1 cells for the last 3.5 to 4 hours of culture and then absorbance was read at 490 nm on an Enspire Multimode plate reader (PerkinElmer).

Test [2] addresses T1, recombinant human IL-4 (Homo sapiens, UniProt P05112).
T1 sequence (P05112 25-153): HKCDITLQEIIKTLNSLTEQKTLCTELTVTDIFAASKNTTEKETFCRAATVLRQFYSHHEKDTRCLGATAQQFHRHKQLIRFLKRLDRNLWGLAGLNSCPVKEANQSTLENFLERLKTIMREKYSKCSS
Nature of the test: TF-1 cell proliferation bioassay with rhIL-4. The class given is cell-based. The following applies: rhIL-4 4 ng/ml; inhibitor 10 μg/ml and 2.5 μg/ml; 48 hours; FIG. 3. As for the experimental part: The various simplified sulphated glyconjugates inhibited the proliferation of an IL-4 responsive cell line to differing degrees. This occurs at very low doses and is not due to a toxic effect of the glycoconjugate because other, similarly sulfated polysaccharides (sucrose octasulfate), at the same concentrations of IL-4 and polysaccharide have no effect. These experiments utilize the TF-1 cells that are grown in 2 ng/ml recombinant human (rh) GM-CSF. TF-1 cells were originally established from a bone marrow sample from a person with severe pancytopenia. These cells are dependent on IL-3 or GM-CSF for long term growth and are responsive to a variety of human cytokines including human IL-4.
as §1, with “rhIL-4” for “rhIL-13”

Sequence of recombinant human IL-13 (P35225 25-146): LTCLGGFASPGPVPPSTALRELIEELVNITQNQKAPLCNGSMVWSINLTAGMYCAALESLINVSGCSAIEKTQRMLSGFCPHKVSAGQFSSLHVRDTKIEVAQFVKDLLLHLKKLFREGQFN

Consider `O=S(=O)(O)OC[C@H]1O[C@@](COS(=O)(=O)O)(O[C@H]2O[C@H](COS(=O)(=O)O)[C@@H](OS(=O)(=O)O)[C@H](OS(=O)(=O)O)[C@H]2OS(=O)(=O)O)[C@@H](OS(=O)(=O)O)[C@@H]1OS(=O)(=O)O` [sucrose octasulfate], for which the “inhibition of IL-13 stimulated TF-1 cell proliferation” value in test [1] is reported as “no effect”. Moreover, the “inhibition of IL-4 stimulated TF-1 cell proliferation” value in test [2] is listed as “no effect”.

The record behind these values is patent publication US11903958B2, “Therapeutic agents and methods of producing same” (GLYCOSYNNOVATIONS PTY LTD, priority 2016, dated 2024).
